# Test results taken from ChEMBL document CHEMBL1149393, “Single-site chemical modification at C10 of the baccatin III core of paclitaxel and Taxol C reduces P-glycoprotein interactions in bovine brain microvessel endothelial cells” (Bioorg Med Chem Lett, 2006).
# What was measured:
# Tubulin (Homo sapiens) [1] = molecular target: T1, Tubulin (Homo sapiens) (UniProt P68371+Q9H4B7+P0DPH7+P68366+Q13509+Q71U36+P04350+Q3ZCM7+P07437+P68363+Q9BQE3+Q6PEY2+Q13885+Q9BVA1+Q9BUF5); assay: Cytotoxicity against multidrug resistant breast cancer MCF7/ADR cell line relative to paclitaxel; assay type: functional, cell-based; conditions: NCI/ADR-RES
# Tubulin (Homo sapiens) [2] = molecular target: T1, Tubulin (Homo sapiens); assay: Cytotoxicity against human breast cancer MCF7 cell line relative to paclitaxel; assay type: functional, cell-based
# Tubulin (Homo sapiens) [3] = molecular target: T1, Tubulin (Homo sapiens); assay: Activity in tubulin assembly assay relative to paclitaxel; assay type: functional
# MCF7 = assay: Cytotoxicity against human breast cancer MCF7 cell line; assay type: functional; conditions: read-out: ED50 (the source's name)
# NCI/ADR-RES = assay: Cytotoxicity against multidrug resistant breast cancer MCF7/ADR cell line; assay type: functional; conditions: Homo sapiens, read-out: ED50 (the source's name)
compound,measurement,setting,value
CC(=O)O[C@@]12CO[C@@H]1C[C@H](O)[C@@]1(C)C(=O)[C@@H](O)C3=C(C)[C@@H](OC(=O)[C@H](O)[C@@H](NC(=O)c4ccccc4)c4ccccc4)C[C@@](O)([C@@H](OC(=O)c4ccccc4)[C@H]21)C3(C)C,Ratio ED50,Tubulin (Homo sapiens) [1],0.7
same,Ratio ED50,Tubulin (Homo sapiens) [2],1.4
same,Ratio ED50,Tubulin (Homo sapiens) [3],3.2
CCCCCC(=O)N[C@@H](c1ccccc1)[C@@H](O)C(=O)O[C@H]1C[C@@]2(O)[C@@H](OC(=O)c3ccccc3)[C@@H]3[C@]4(OC(C)=O)CO[C@@H]4C[C@H](O)[C@@]3(C)C(=O)[C@@H](O)C(=C1C)C2(C)C,Ratio ED50,Tubulin (Homo sapiens) [1],3.1
same,Ratio ED50,Tubulin (Homo sapiens) [2],9.2
same,Ratio ED50,Tubulin (Homo sapiens) [3],1.6
CC(=O)O[C@@H]1C(=O)[C@@]2(C)[C@H]([C@H](OC(=O)c3ccccc3)[C@]3(O)C[C@H](OC(=O)[C@H](O)[C@@H](NC(=O)c4ccccc4)c4ccccc4)C(C)=C1C3(C)C)[C@]1(OC(C)=O)CO[C@@H]1C[C@@H]2O,Ratio ED50,Tubulin (Homo sapiens) [1],1.3
same,Ratio ED50,Tubulin (Homo sapiens) [2],0.7
same,Ratio ED50,Tubulin (Homo sapiens) [3],0.8
CCCCCC(=O)N[C@@H](c1ccccc1)[C@@H](O)C(=O)O[C@H]1C[C@@]2(O)[C@@H](OC(=O)c3ccccc3)[C@@H]3[C@]4(OC(C)=O)CO[C@@H]4C[C@H](O)[C@@]3(C)C(=O)[C@H](OC(C)=O)C(=C1C)C2(C)C,Ratio ED50,Tubulin (Homo sapiens) [1],0.48
same,Ratio ED50,Tubulin (Homo sapiens) [2],2.2
same,Ratio ED50,Tubulin (Homo sapiens) [3],2
CCCCCC(=O)N[C@@H](c1ccccc1)[C@@H](O)C(=O)O[C@H]1C[C@@]2(O)[C@@H](OC(=O)c3ccccc3)[C@@H]3[C@]4(OC(C)=O)CO[C@@H]4C[C@H](O)[C@@]3(C)C(=O)[C@H](O)C(=C1C)C2(C)C,Ratio ED50,Tubulin (Homo sapiens) [1],3.8
same,Ratio ED50,Tubulin (Homo sapiens) [2],4.8
same,Ratio ED50,Tubulin (Homo sapiens) [3],2.2
CC(=O)O[C@H]1C(=O)[C@@]2(C)[C@H]([C@H](OC(=O)c3ccccc3)[C@]3(O)C[C@H](OC(=O)[C@H](O)[C@@H](NC(=O)c4ccccc4)c4ccccc4)C(C)=C1C3(C)C)[C@]1(OC(C)=O)CO[C@@H]1C[C@@H]2O [PACLITAXEL],EC50,MCF7,3.23 nM
same,Ratio ED50,Tubulin (Homo sapiens) [3],1
same,EC50,NCI/ADR-RES,1.53 nM
CCCCCC(=O)N[C@@H](c1ccccc1)[C@@H](O)C(=O)O[C@H]1C[C@@]2(O)[C@@H](OC(=O)c3ccccc3)[C@@H]3[C@]4(OC(C)=O)CO[C@@H]4C[C@H](O)[C@@]3(C)C(=O)[C@@H](OC(=O)CC)C(=C1C)C2(C)C,Ratio ED50,Tubulin (Homo sapiens) [1],2.9
same,Ratio ED50,Tubulin (Homo sapiens) [2],3.8
same,Ratio ED50,Tubulin (Homo sapiens) [3],2.1
CCCCCC(=O)N[C@@H](c1ccccc1)[C@@H](O)C(=O)O[C@H]1C[C@@]2(O)[C@@H](OC(=O)c3ccccc3)[C@@H]3[C@]4(OC(C)=O)CO[C@@H]4C[C@H](O)[C@@]3(C)C(=O)[C@@H](OC(C)=O)C(=C1C)C2(C)C,Ratio ED50,Tubulin (Homo sapiens) [1],1.6
same,Ratio ED50,Tubulin (Homo sapiens) [2],3.2
same,Ratio ED50,Tubulin (Homo sapiens) [3],0.21
CC(=O)O[C@@]12CO[C@@H]1C[C@H](O)[C@@]1(C)C(=O)[C@H](O)C3=C(C)[C@@H](OC(=O)[C@H](O)[C@@H](NC(=O)c4ccccc4)c4ccccc4)C[C@@](O)([C@@H](OC(=O)c4ccccc4)[C@H]21)C3(C)C,Ratio ED50,Tubulin (Homo sapiens) [1],6.6
same,Ratio ED50,Tubulin (Homo sapiens) [2],7.5
same,Ratio ED50,Tubulin (Homo sapiens) [3],2.1
CCC(=O)O[C@@H]1C(=O)[C@@]2(C)[C@H]([C@H](OC(=O)c3ccccc3)[C@]3(O)C[C@H](OC(=O)[C@H](O)[C@@H](NC(=O)c4ccccc4)c4ccccc4)C(C)=C1C3(C)C)[C@]1(OC(C)=O)CO[C@@H]1C[C@@H]2O,Ratio ED50,Tubulin (Homo sapiens) [1],1.1
same,Ratio ED50,Tubulin (Homo sapiens) [2],2.6
same,Ratio ED50,Tubulin (Homo sapiens) [3],4.1
